Consider 14 substances from US20080292619A1, “Pharmaceutical Composition Containing Meltrin Antagonist” (MOCHIDA PHARMACEUTICAL CO., LTD., priority 2004, published 2008).

In the series the test system is human meltrin α RNA. Nature of the series: Suppression of human meltrin α expression by antisense compound in RD cell (real time PCR). The format is cell-based. The following applies: RD cell, corrected by GAPDH. The essentials:
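RD cells transfected with heat-denatured antisense oligodeoxynucleotide plus Lipofectin in Opti-MEM for 4 h at 37° C, then cultured 18 h. Meltrin α RNA quantified by TaqMan RT-PCR against plasmid standard curve, GAPDH-corrected; suppression vs untreated cells, rated +/++/+++ for ≥30/50/70%.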

In the oligonucleotide strings, read from the 5' end, every base follows the letter of its sugar. An asterisk marks phosphorothioate; unmarked linkages are phosphodiester. Other units and linkages are bracketed, terminal groups are in braces. A string of capitals states the bases alone. d = 2'-deoxy (DNA)

In the case of “H033: gtgacccagaattaccgtgt (GTGACCCAGAATTACCGTGT; antisense; DNA, all phosphorothioate, methylation of C not given here)”, the “suppression rate of expression, 200 nM” value was “+ (“+” when the suppression rate was at least 30%)”. On the same count and under the same terms, the entry for “H044: tctttgcagcgaggtttggt (TCTTTGCAGCGAGGTTTGGT; antisense; DNA, all phosphorothioate, methylation of C not given here)” is “++ (“++” when the suppression rate was at least 50%)”. With “H148 + 10: gggtgccaggcggagcccag (dG*dG*dG*dT*dG*dC*dC*dA*dG*dG*dC*dG*dG*dA*dG*dC*dC*dC*dA*dG; antisense)”, the “suppression rate of expression, 50 nM” value is “++ (“++” when the suppression rate was at least 50%)”.

As for “H032: aatttcgagcgagggagaca (AATTTCGAGCGAGGGAGACA; antisense; DNA, all phosphorothioate, methylation of C not given here)”, the “suppression rate of expression, 200 nM” value is “+ (“+” when the suppression rate was at least 30%)”. “H009: agccctcgcgcacggcccgc (AGCCCTCGCGCACGGCCCGC; antisense; DNA, all phosphorothioate, methylation of C not given here)”: the “suppression rate of expression, 50 nM” value is on record as “+ (“+” when the suppression rate was at least 30%)” and the “suppression rate of expression, 200 nM” value is “+++ (“+++” when the suppression rate was at least 70%)”.

For “H102: agcatctctcatctcgcatt (dA*dG*dC*dA*dT*dC*dT*dC*dT*dC*dA*dT*dC*dT*dC*dG*dC*dA*dT*dT; antisense)”, the “suppression rate of expression, 200 nM” value is listed as “+ (“+” when the suppression rate was at least 30%)”. In the case of “H139 + 11: gtgcacgtggggcccggtgg (GTGCACGTGGGGCCCGGTGG; antisense; DNA, all phosphorothioate, methylation of C not given here)”, the “suppression rate of expression, 50 nM” value is “+ (“+” when the suppression rate was at least 30%)”.

For the substance “H134: atctcctgggattgtccttc (ATCTCCTGGGATTGTCCTTC; antisense; DNA, all phosphorothioate, methylation of C not given here)”, the “suppression rate of expression, 50 nM” value is “+ (“+” when the suppression rate was at least 30%)” and the “suppression rate of expression, 200 nM” value is “++ (“++” when the suppression rate was at least 50%)”. As for “H084: cagggtacaggtggtggcat (dC*dA*dG*dG*dG*dT*dA*dC*dA*dG*dG*dT*dG*dG*dT*dG*dG*dC*dA*dT; antisense)”, the “suppression rate of expression, 200 nM” value was “++ (“++” when the suppression rate was at least 50%)”. For “H146: catgagtgagccgagttgtt (dC*dA*dT*dG*dA*dG*dT*dG*dA*dG*dC*dC*dG*dA*dG*dT*dT*dG*dT*dT; antisense)”, the “suppression rate of expression, 50 nM” value is “+ (“+” when the suppression rate was at least 30%)” and the “suppression rate of expression, 200 nM” value is recorded as “++ (“++” when the suppression rate was at least 50%)”.

As to “H003: ccgttgcaataaatgagcaa (CCGTTGCAATAAATGAGCAA; antisense; DNA, all phosphorothioate, methylation of C not given here)”, the “suppression rate of expression, 200 nM” value is on record as “+ (“+” when the suppression rate was at least 30%)”.

In the case of “H013: ctgcaccatcccacgcgggc (CTGCACCATCCCACGCGGGC; antisense; DNA, all phosphorothioate, methylation of C not given here)”, the “suppression rate of expression, 50 nM” value is reported as “+ (“+” when the suppression rate was at least 30%)” and the “suppression rate of expression, 200 nM” value is listed as “++ (“++” when the suppression rate was at least 50%)”. For the substance “H143 + 14: cttctgaggggggtttggct (CTTCTGAGGGGGGTTTGGCT; antisense; DNA, all phosphorothioate, methylation of C not given here)”, the “suppression rate of expression, 50 nM” value is listed as “+ (“+” when the suppression rate was at least 30%)”. The same measure, in the same setting: the entry for “H150 + 10: atctgggcacttggtgtgga (dA*dT*dC*dT*dG*dG*dG*dC*dA*dC*dT*dT*dG*dG*dT*dG*dT*dG*dG*dA; antisense)” is “++ (“++” when the suppression rate was at least 50%)”.
